Results on 22 compounds are retold here after PubChem BioAssay AID256 (DTP/NCI, 2004).

“And” between values parts separate entries of the source, which are not always exact repeats. Identical values can stand only once. Inconclusive results and toxic doses are left out.

For this assay, the system named is CD2F1 mice, L1210 leukemia ip, survival T/C. As to the kind of experiment: NCI In Vivo Anticancer Drug Screen. Data for tumor model L1210 Leukemia (intraperitoneal) in CD2F1 (CDF1) mice. Conditions: higher = longer survival. In short, it runs like this: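 Antitumor effect is scored in animals hosting a serially transplanted tumor. Values compare compound-dosed animals against vehicle-only controls as a simple quotient.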

[1] abbreviates: endpoint: mean survival time, dose: 100.0 mg/kg/injection, schedule: Q04DX003 (ip), vehicle: saline with Tween-80.
[2] abbreviates: endpoint: mean survival time, dose: 200.0 mg/kg/injection, schedule: Q04DX003 (ip), vehicle: saline with Tween-80.
Where [3] appears, read: endpoint: mean survival time, dose: 400.0 mg/kg/injection, schedule: Q04DX003 (ip), vehicle: saline with Tween-80.
Where [4] appears, read: endpoint: mean survival time, dose: 12.5 mg/kg/injection, schedule: Q01DX009 (ip), vehicle: saline with Tween-80.
Setting [5] is: endpoint: mean survival time, dose: 25.0 mg/kg/injection, schedule: Q01DX009 (ip), vehicle: saline with Tween-80.
The mark [6] stands for this setting: endpoint: mean survival time, dose: 50.0 mg/kg/injection, schedule: Q01DX009 (ip), vehicle: saline with Tween-80.
[7] abbreviates: endpoint: mean survival time, dose: 100.0 mg/kg/injection, schedule: Q01DX009 (ip), vehicle: saline.
[8] abbreviates: endpoint: mean survival time, dose: 200.0 mg/kg/injection, schedule: Q01DX009 (ip), vehicle: saline.
Setting [9] is: endpoint: mean survival time, dose: 100.0 mg/kg/injection, schedule: Q04DX002 (ip), vehicle: saline with Tween-80.
[10] abbreviates: endpoint: mean survival time, dose: 200.0 mg/kg/injection, schedule: Q04DX002 (ip), vehicle: saline with Tween-80.
The mark [11] stands for this setting: endpoint: mean survival time, dose: 400.0 mg/kg/injection, schedule: Q04DX002 (ip), vehicle: saline with Tween-80.
The mark [12] stands for this setting: endpoint: mean survival time, dose: 100.0 mg/kg/injection, schedule: Q01DX009 (ip), vehicle: saline with Tween-80.
[13] abbreviates: endpoint: mean survival time, dose: 200.0 mg/kg/injection, schedule: Q01DX009 (ip), vehicle: saline with Tween-80.
[14] abbreviates: endpoint: mean survival time, dose: 400.0 mg/kg/injection, schedule: Q01DX009 (ip), vehicle: saline.

On to `Cn1c(=O)c2c(nc(NN)n2C)n(C)c1=O`, for which the T/C (endpoint: mean survival time, dose: 12.5 mg/kg/injection, schedule: Q01DX005 (ip), vehicle: distilled water + Tween-80) was 100 % of control; the T/C (endpoint: mean survival time, dose: 25.0 mg/kg/injection, schedule: Q01DX005 (ip), vehicle: distilled water + Tween-80) is 100 % of control; the T/C (endpoint: mean survival time, dose: 50.0 mg/kg/injection, schedule: Q01DX005 (ip), vehicle: distilled water + Tween-80) is 103 % of control; the T/C (endpoint: mean survival time, dose: 100.0 mg/kg/injection, schedule: Q01DX005 (ip), vehicle: distilled water + Tween-80) is 89 % of control; the T/C (endpoint: mean survival time, dose: 200.0 mg/kg/injection, schedule: Q01DX005 (ip), vehicle: distilled water + Tween-80) was 101 % of control.

Regarding `CC(C)(C)OC(=O)CCC(NC(=O)OC(C)(C)C)C(=O)O` (stereo not drawn), the T/C under setting [1] is 98 % of control, the T/C under setting [2] is 93 % of control and the T/C under setting [3] was 95 % of control.

As for `COC(=O)C1C2CC(O)C(C2)C1C(=O)OC` (stereo not drawn), the T/C is 97 % of control under setting [4], 101 % of control under setting [5] and 104 % of control under setting [6].

Regarding `O=C(O)C(Br)CCC(Br)C(=O)O` (stereo not drawn), the T/C reads like this: (endpoint: mean survival time, dose: 100.0 mg/kg/injection, schedule: Q01DX001 (ip), vehicle: other) 102 % of control; (endpoint: mean survival time, dose: 200.0 mg/kg/injection, schedule: Q01DX001 (ip), vehicle: other) 102 % of control; (endpoint: mean survival time, dose: 400.0 mg/kg/injection, schedule: Q01DX001 (ip), vehicle: other) 97 % of control.

Consider `COc1cc(C)c(Cl)[n+]([O-])n1`, for which the T/C by setting is: (endpoint: mean survival time, dose: 3.13 mg/kg/injection, schedule: Q04DX002 (ip), vehicle: saline with Tween-80) 104 % of control; (endpoint: mean survival time, dose: 6.25 mg/kg/injection, schedule: Q04DX002 (ip), vehicle: saline with Tween-80) 104 % of control; (endpoint: mean survival time, dose: 12.5 mg/kg/injection, schedule: Q04DX002 (ip), vehicle: saline with Tween-80) 97 % of control and 104 % of control.

In the case of `CC(=O)NS(=O)(=O)c1ccc(NC(=O)/C=C/C(=O)O)cc1`, the T/C (endpoint: mean survival time, dose: 100.0 mg/kg/injection, schedule: Q04DX003 (ip), vehicle: saline) is 100 % of control; the T/C (endpoint: mean survival time, dose: 200.0 mg/kg/injection, schedule: Q04DX003 (ip), vehicle: saline) was 100 % of control; the T/C (endpoint: mean survival time, dose: 400.0 mg/kg/injection, schedule: Q04DX003 (ip), vehicle: saline) is 100 % of control.

For `CC(=O)ON(C(C)=O)c1ccc(C(N)=O)cc1`, the T/C is, setting by setting: (endpoint: median survival time, dose: 25.0 mg/kg/injection, schedule: Q01DX009 (ip), vehicle: saline with Tween-80) 103 % of control; (endpoint: median survival time, dose: 50.0 mg/kg/injection, schedule: Q01DX009 (ip), vehicle: saline with Tween-80) 100 % of control; (endpoint: median survival time, dose: 100.0 mg/kg/injection, schedule: Q01DX009 (ip), vehicle: saline with Tween-80) 101 % of control; (endpoint: median survival time, dose: 200.0 mg/kg/injection, schedule: Q01DX009 (ip), vehicle: saline with Tween-80) 103 % of control; (endpoint: median survival time, dose: 400.0 mg/kg/injection, schedule: Q01DX009 (ip), vehicle: saline with Tween-80) 108 % of control.

With `CCCc1nc2[nH]c(N)nc(=S)c2[nH]1`, the T/C (endpoint: mean survival time, dose: 12.5 mg/kg/injection, schedule: Q01DX005 (ip), vehicle: other) is 100 % of control and the T/C (endpoint: mean survival time, dose: 25.0 mg/kg/injection, schedule: Q01DX005 (ip), vehicle: other) was 108 % of control.

On to `S=c1nn[nH]n1-c1ccccc1`, for which the T/C reads like this: under setting [7], 103 % of control; under setting [8], 109 % of control.

For the compound `O=C(Nc1ccc2c3c(ccc(C(=O)O)c13)CC2)c1ccccc1`, the T/C is 97 % of control under setting [1], 95 % of control under setting [2] and 104 % of control under setting [3].

On to `O=c1[nH]cnc2ccccc12`, for which the T/C under setting [9] is 96 % of control, the T/C under setting [10] was 101 % of control and the T/C under setting [11] was 104 % of control.

For `Nc1ccc(S(=O)(=O)c2ccc(Nc3ccccc3)c(N)c2)cc1`, the T/C was 97 % of control under setting [9], 94 % of control under setting [10] and 97 % of control under setting [11].

`O=C(OC(CN1CCCCC1)CN1CCCc2ccccc21)C(O)C(O)C(O)(CO)C(=O)OC(CN1CCCCC1)CN1CCCc2ccccc21` (stereo not drawn): the T/C is 95 % of control under setting [1] and 91 % of control under setting [2].

For the compound `CCOC(=O)CC(O)CC` (stereo not drawn), the T/C by setting is: (endpoint: mean survival time, dose: 100.0 mg/kg/injection, schedule: Q04DX002 (ip), vehicle: saline) 95 % of control; (endpoint: mean survival time, dose: 200.0 mg/kg/injection, schedule: Q04DX002 (ip), vehicle: saline) 95 % of control; (endpoint: mean survival time, dose: 400.0 mg/kg/injection, schedule: Q04DX002 (ip), vehicle: saline) 95 % of control.

`COc1ccc(C(=O)CCCC(=O)O)cc1`: the T/C under setting [12] was 90 % of control; the T/C under setting [13] was 101 % of control; the T/C (endpoint: mean survival time, dose: 400.0 mg/kg/injection, schedule: Q01DX009 (ip), vehicle: saline with Tween-80) is 97 % of control.

As for `Nc1ncnc2c1nnn2C1OC(CO)C(O)C1O` (stereo not drawn), the T/C (endpoint: mean survival time, dose: 10.0 mg/kg/injection, schedule: Q01DX009 (ip), vehicle: Klucel (hydroxypropylcellulose) (HPC)) is 110 % of control; the T/C (endpoint: mean survival time, dose: 15.0 mg/kg/injection, schedule: Q01DX009 (ip), vehicle: Klucel (hydroxypropylcellulose) (HPC)) was 107 % of control; the T/C (endpoint: mean survival time, dose: 28.0 mg/kg/injection, schedule: Q01DX009 (ip), vehicle: Klucel (hydroxypropylcellulose) (HPC)) was 121 % of control; the T/C (endpoint: mean survival time, dose: 63.0 mg/kg/injection, schedule: Q01DX009 (ip), vehicle: Klucel (hydroxypropylcellulose) (HPC)) was 115 % of control.

Turning to `COc1cc(Cl)ccc1NC(=O)Nc1cccc(C(=O)O)c1`, the T/C under setting [4] is 97 % of control; the T/C under setting [5] was 90 % of control; the T/C under setting [6] is 90 % of control; the T/C under setting [12] was 96 % of control; the T/C under setting [13] was 90 % of control.

With `COC(=O)[C@@]12OC[C@]34[C@H]([C@@H](O)[C@@H]1O)[C@@]1(C)CC(=O)C(OC(=O)CC(=O)OC5=C(C)[C@@H]6C[C@H]7OC(=O)[C@H](OC(=O)/C=C(\C)C(C)C)[C@H]8[C@]9(C(=O)OC)OC[C@]78[C@H]([C@@H](O)[C@@H]9O)[C@@]6(C)CC5=O)=C(C)[C@@H]1C[C@H]3OC(=O)[C@H](OC(=O)/C=C(\C)C(C)C)[C@@H]24`, the T/C was 113 % of control (endpoint: median survival time, dose: 0.37 mg/kg/injection, schedule: Q01DX009 (ip), vehicle: saline + Tween-80 + alcohol); 112 % of control (endpoint: median survival time, dose: 0.38 mg/kg/injection, schedule: Q01DX009 (ip), vehicle: saline + Tween-80 + alcohol); 115 % of control and 121 % of control (endpoint: median survival time, dose: 0.75 mg/kg/injection, schedule: Q01DX009 (ip), vehicle: saline + Tween-80 + alcohol); 121 % of control and 112 % of control (endpoint: median survival time, dose: 1.5 mg/kg/injection, schedule: Q01DX009 (ip), vehicle: saline + Tween-80 + alcohol).

Regarding `CCC(=O)OCC1OC(n2ccc(O)cc2=O)C(O)C1O` (stereo not drawn), the T/C is 178 % of control (endpoint: median survival time, dose: 44.0 mg/kg/injection, schedule: Q01DX009 (ip), vehicle: saline + alcohol); 174 % of control (endpoint: median survival time, dose: 67.0 mg/kg/injection, schedule: Q01DX009 (ip), vehicle: saline + alcohol); 174 % of control (endpoint: median survival time, dose: 100.0 mg/kg/injection, schedule: Q01DX009 (ip), vehicle: saline + alcohol); 153 % of control (endpoint: median survival time, dose: 150.0 mg/kg/injection, schedule: Q01DX009 (ip), vehicle: saline + alcohol).

For the compound `COC(=O)N1CC=CCN1C(=O)OC`, the T/C is 105 % of control under setting [7], 108 % of control under setting [8] and 102 % of control under setting [14].

On to `COCC(=O)C(C(C)=O)C(c1ccncc1)C(C(C)=O)C(=O)COC` (stereo not drawn), for which the T/C was 96 % of control under setting [1], 98 % of control under setting [2] and 102 % of control under setting [3].

For the compound `COC(=O)CC(NC(=O)C(F)(F)F)C(=O)OC` (stereo not drawn), the T/C (endpoint: mean survival time, dose: 100.0 mg/kg/injection, schedule: Q01DX001 (ip), vehicle: saline) was 108 % of control; the T/C under setting [7] is 94 % of control; the T/C under setting [1] was 97 % of control; the T/C (endpoint: mean survival time, dose: 200.0 mg/kg/injection, schedule: Q01DX001 (ip), vehicle: saline) is 104 % of control; the T/C under setting [8] is 94 % of control; the T/C under setting [2] is 97 % of control. The T/C runs as follows: (endpoint: mean survival time, dose: 400.0 mg/kg/injection, schedule: Q01DX001 (ip), vehicle: saline) 98 % of control; under setting [14], 100 % of control; under setting [3], 103 % of control.
